Patent US20070191402A1, “Method of searching substrate having antidiabetic activity” (KYOWA HAKKO KOGYO CO., LTD., priority 2002, published 2007)

Experiments:
MIN6 cell = assay: Insulin secretion test using MIN6 cell; type: cell-based, murine; details: for Insulin secretion-promoting activity (%): 10 μmol/l; for Insulin secretory activity (%): MIN6 cell, glucose 14.5 mmol/l or 8.4 mmol/l
Method: Culturing MIN6 cell and testing insulin secretion using MIN6 cell were carried out according to the method described in Diabetorogia, 36, 1139-1145 (1993).
In other words, the influence of a compound on the insulin secretion activity in the presence of 14.5 mmol/l glucose was assessed by assaying the amount of insulin in the cell culture supernatant collected as follows.
The MIN6 cell cultured in a 24-well plate was washed twice with 1 ml of buffer A [119 mmol/l NaCl, 4.74 mmol/l KCl, 2.54 mmol/l CaCl2, 1.19 mmol/l MgSO4, 1.19 mmol/l KH2PO4, 10 mmol/l 2-[4-(2-hydroxylethyl)-1-piperadinyl]ethanesulfonic acid, 0.1% BSA, pH 7.3] containing 2 mmol/l glucose. Subsequently, the resulting cell was incubated in 1 ml of the buffer A containing 2 mmol/l glucose at 37° C. for 45 minutes. The culture supernatant was exchanged with the buffer A (1 ml) containing test compounds of various concentrations and 8.4 mmol/l glucose and incubated at 37° C. for 45 minutes to collect the culture supernatant.
Antibody-reactive insulin secreted in the culture supernatant was assayed by radioimmunoassay [Methods in Investigative and Diagnostic Endocrinology, Vol. 2A, 2B, North-Holland Publishing Co., Amsterdam (1973)] after the culture supernatant was diluted with phosphate buffer containing 1% BSA, 0.1% Tween 20, 0.12% EDTA 2Na, and 0.1% sodium azide. A standard curve was prepared by using human insulin as the standard substance, and individual insulin values were calculated on the basis of the curve.

[1] = test system: pancreatic β cell (MIN6 cell); assay: Inhibition of binding of [3H]-labeled Compound 16 to pancreatic β cell; design: species or system murine; details: for Binding inhibition (%): pancreatic β cells, [3H]-labeled Compound 16, tested substance 1 μmol/l or 10 μmol/l; for Binding inhibitory activity (%): test compound 1 μmol/l, 10 nmol/l [3H]-labeled Compound 16, MIN6 cell, 4° C.
Method: MIN6 cell cultured to almost confluence in a 24-well plate for cell culture (manufactured by Corning) was washed twice with KRH buffer (119 mmol/l NaCl, 4.74 mmol/KCl, 2.54 mmol/l calcium chloride (CaCl2), 1.19 mmol/l magnesium sulfate (MgSO4), 1.19 mmol/l potassium dihydrogen phosphate (KH2PO4), 10 mmol/l HEPES, 2 mmol/l glucose, 0.1 w/v % bovine serum albumin (BSA), pH 7.3). Subsequently, the KRH buffer was added at 1 ml per well, for preincubation at 37° C. for 45 minutes. After preincubation, the supernatant was discarded, and 0.15 ml of the KRH buffer, […] at 4° C. for one hour or longer until the reaction reached equilibrium. Subsequently, the cell was washed twice using the KRH buffer. The KRH buffer was added at 2 ml per well, which was then left to stand at room temperature for 20 minutes. The cell was again washed twice by using the KRH buffer. The radioactivity remaining in each well was counted with a liquid scintillation counter to determine the binding amount.
The difference between the binding amount of the [^3H]-labeled Compound 16 (total binding amount) under conditions with no addition of any test compound and the binding amount of the [^3H]-labeled Compound 16 (non-specific binding amount) under conditions in the presence of the Compound 16 at 10 μmol/l was defined as specific binding amount.
According to the method described in Example 5, a substance having anti-diabetic activity was screened for, using the inhibitory activity of the binding between pancreatic β cells and [^3H]-labeled Compound 16. A tested substance was dissolved in dimethylsulfoxide and then added to give a final concentration of 1 μmol/l. The radioactivity with addition of the unlabeled Compound 16 was defined as the non-specific binding amount and the radioactivity without addition of the unlabeled Compound 16 was defined as the total binding amount, and then the individual specific binding amounts were calculated by the method described in Example 6. Using the following formula, the binding inhibition ratio was determined. [formula]

[2] = promoted insulin secretion level of Compound 16 = 100%

| Compound | Insulin secretory activity (%) (MIN6 cell) | Binding inhibitory activity (%) [1] | also measured |
| --- | --- | --- | --- |
| CNc1nc(NC(C)(C)C)nc(NC(C)(C)C)n1 [compound 193] |  |  | Insulin secretion-promoting activity (%) (MIN6 cell; [2]): 194.8%; promoted insulin secretion level (MIN6 cell; [2]): 195%; inhibition ratio (binding of [3H]-labeled Compound 16 to pancreatic β cells) ([1]; at 10 μmol/l): 84%; Binding inhibition (%) [1]: 84.0% |
| CCCN1C(=O)N2CC(Cc3ccccc3)N=C2c2[nH]c(C)nc21 (centres unmarked) [compound 183] | 22.5% | 41.6% |  |
| O=C1N2CC(Cc3ccccc3)N=C2c2[nH]c(C3CCCC3)nc2N1c1ccccc1 (centres unmarked) [compound 85] | 26.7% | 72.0% |  |
| O=C1N2CC(Cc3ccccc3)N=C2c2[nH]c(C3CCCC3)nc2N1Cc1ccc(F)cc1 (centres unmarked) [compound 175] | 54.7% | 49.5% |  |
| CCCN1C(=O)N2CC(Cc3ccc(F)cc3)N=C2c2[nH]c(C3CCCC3)nc21 (centres unmarked) [compound 187] | 85.0% | 73.5% |  |
| O=C1N2CC(Cc3ccccc3)N=C2c2[nH]c(C3CCCC3)nc2N1CCCO (centres unmarked) [compound 189] | 44.9% | 56.4% |  |
| CCCN1C(=O)N2CC(Cc3ccccc3)N=C2c2[nH]c(C(C)(C)C)nc21 (centres unmarked) [compound 43] | 54.4% | 77.6% |  |
| CCCN1C(=O)N2CC(Cc3ccccc3)N=C2c2[nH]c(C3CCCO3)nc21 (centres unmarked) [compound 144] | 28.5% | 50.5% |  |
| CCCN1C(=O)N2CC(Cn3cncn3)N=C2c2[nH]c(C3CCCC3)nc21 (centres unmarked) [compound 116] | −1.7% | 7.9% |  |
| CC(C)(C)Nc1nc(NC(C)(C)C)nc(N2CCOCC2)n1 [compound 194] |  |  | Insulin secretion-promoting activity (%) (MIN6 cell; [2]): 122.7%; Binding inhibition (%) [1]: 78.1% |
| CCCN1C(=O)N2CC(Cc3ccccc3)N=C2c2[nH]c(COCC)nc21 (centres unmarked) [compound 138] | 7.8% | 60.7% |  |
| CN(C)c1nc(NC(C)(C)C)nc(NC(C)(C)C)n1 [compound 198] |  |  | Insulin secretion-promoting activity (%) (MIN6 cell; [2]): 30.6%; Binding inhibition (%) [1]: 99.0% |
| CCCc1nc2c([nH]1)C1=NC(Cc3ccccc3)CN1C(=O)N2CCC (centres unmarked) [compound 184] | 75.0% | 78.5% |  |
| CN1C(=O)N2CC(Cc3ccccc3)N=C2c2[nH]c(C3CCCC3)nc21 (centres unmarked) [compound 84] | 31.7% | 66.4% |  |
| CCCN1C(=O)N2CC(Cc3ccccc3)N=C2c2[nH]c(C3CCC3)nc21 (centres unmarked) [compound 37] | 61.0% | 73.7% |  |
| CCCN1C(=O)N2CC(CCc3ccccc3)N=C2c2[nH]c(C3CCCC3)nc21 (centres unmarked) [compound 31] | 80.5% | 112.4% |  |
| CCCN1C(=O)N2CC(Cc3cccc(C)c3)N=C2c2[nH]c(C3CCCC3)nc21 (centres unmarked) [compound 61] | 80.4% | 50.8% |  |
| CCCN1C(=O)N2CC(Cc3ccccc3)N=C2c2[nH]c(C3CCCCC3)nc21 (centres unmarked) [compound 38] | 83.0% | 71.8% |  |
| CCCN1C(=O)N2CC(Cn3cccc3)N=C2c2[nH]c(C3CCCC3)nc21 (centres unmarked) [compound 117] | 43.5% | 68.6% |  |
| CCCN1C(=O)N2CC(Cc3ccc(O)cc3)N=C2c2[nH]c(C3CCCC3)nc21 (centres unmarked) [compound 76] | 16.9% | 12.6% |  |
| C1=CC2N=CN(c3nc(-n4cnc5ccccc54)nc(-n4cnc5ccccc54)n3)C2C=C1 (centres unmarked) [compound 197] |  |  | Insulin secretion-promoting activity (%) (MIN6 cell; [2]): 31.9%; Binding inhibition (%) [1]: 15.0% |
| CCCN1C(=O)N2CC(Cc3ccccc3)N=C2c2[nH]c(CC3CCCC3)nc21 (centres unmarked) [compound 40] | 76.3% | 38.5% |  |
| CCCN1C(=O)N2CC(Cc3ccc(C(=O)O)cc3)N=C2c2[nH]c(C3CCCC3)nc21 (centres unmarked) [compound 188] | −8.0% | −7.6% |  |
| CCCc1nc2c([nH]1)C1=NC(Cc3ccc(C#N)cc3)CN1C(=O)N2CCC (centres unmarked) [compound 185] | 30.7% | 38.4% |  |
| CCCN1C(=O)N2CC(Cc3ccccc3)N=C2c2[nH]c(C3CCC(O)CC3)nc21 (centres unmarked) [compound 147] | 45.6% | 56.8% |  |
| CCCN1C(=O)N2CC(Cc3ccccc3)N=C2c2[nH]c(C3CC3)nc21 (centres unmarked) [compound 36] | 47.0% | 57.9% |  |
| CCCN1C(=O)N2CC(Cc3ccccc3)N=C2c2[nH]c(C(C)C)nc21 (centres unmarked) [compound 41] | 37.2% | 55.0% |  |
